Results from US12642791B2, “Inhibitors of lysyl oxidases” (UNIVERSITY OF SOUTH CAROLINA, priority 2021, dated 2026).

Tests used:
4T1 = experiment: Syngeneic TNBC tumor model; assay type: in vivo, BALB/c mice
Experimental: FIG. 43. 6403 overcomes doxorubicin resistance without major toxicity in a syngeneic mouse model, 4T1. A. Tumor growth in 4T1 model treated with doxorubicin (2 mg/kg, I.V, weekly), 6403 (50 mg/kg, P.O, daily) or their combination. Representative pictures of the tumors shown on the right panel. B. Western blot analysis of LOX in 4T1 tumors from A. C. % body weight change of mice from A. D. Blood cell counts in mice from A at the end of the experiment. 500,000 4T1 cells were injected into MFP of 6-8 weeks old female BALB/c mice. When the tumors reach 100 mm3, mice were randomly distributed to 4 groups and treated with vehicle, doxorubicin (2 mg/kg once a week, I.V.), 6403 (50 mg/kg daily, oral gavage) or the combination of doxorubicin with 6403. Tumor volumes were measured using a caliper every two days, and body weights were also recorded. After 3 weeks of treatment, blood was withdrawn, and blood cells were quantified using VetScan HM5 Hematology Analyzer.

TM01278 PDX organoids = experiment: PDX-derived TNBC organoids, combination with doxorubicin; assay type: cell-based, human; conditions: combination with doxorubicin (50 nM) vs single agents, 9 days
Experimental: FIG. 36. Combination of 6403 and 6415 with doxorubicin reduced the growth of the TNBC organoids. A. Representative images of TM01278 PDX organoids at day 0 and day 9 after treatment with doxorubicin (50 nM) and 6403 and 6415 treatments, alone or in combination. B. Quantification of organoid diameter and viability upon combination therapy for 9 days.
TNBC organoids were established from a fresh surgical tissue by cutting the tumor into small pieces and incubating in collagenase A solution with ROCK inhibitor on a shaker at 37° C. for 30 minutes. The collagenase activity was inhibited by adding FBS, and pipetting was done to ensure the formation of almost a single cell solution. After several washes with PBS, the cell pellet was dissolved in matrigel. Breast organoid media containing ROCK and GSK inhibitors was added after the Matrigel solidified. See, Sachs, N. et al. A Living Biobank of Breast Cancer Organoids Captures Disease Heterogeneity. Cell 172, 373-386 e310, doi:10.1016/j.cell.2017.11.010 (2018). For drug testing studies, organoids were disrupted to single cells by digesting at 37° C. for 30 mins with TrypLE (A1217701, Gibco, NY, USA) in the presence of 10 μM Rock inhibitor (s1049, Selleckchem, TX, USA). Organoids were plated into wells of 96 well plate (20.000 cells/well) on a collagen-coated surface with media containing 2% Matrigel (356252, Corning, NY, USA). Drugs were added 72 hours after plating. Cells were grown in the presence of drug or vehicle for 9 days, and photos were taken from each well to show the organoid size. Organoid viability was measured by using 3D Cell Titer Glo (Promega, USA) kit.

In vivo toxicity testing = experiment: In vivo toxicity testing; design: species or system BALB/c mice
Experimental: FIG. 41. In vivo testing of 6403 with respect to PK and toxicity. A. Summary of PK parameters of 6403 given orally with 50 mg/kg, n=3. B. H&E staining of organs of BALB/c mice treated daily with 50 or 200 mg/kg of 6403 for one week. C. Body weight of mice treated with vehicle or 25, 50, 75, 100 or 200 mg/kg of 6403 for 5 days. D. Cell-free enzymatic MAO-A and MAO-B assay.

PK analysis = assay type: in vivo, BALB/c mice; conditions: mice, orally 50 mg/kg, n=3
Experimental: PK profiles of Lead LOX inhibitor, 6403 was tested in BALB/c mice. Three mice per group were dosed by oral gavage at 50 mg/kg. Serum samples were collected at time points; 0.25, 0.5, 2, 7 and 24 hours. 6403 was diluted with serum from healthy mice as standard and serum levels of LOX inhibitors were quantified by LC-MS/MS methods, compared to the standard readings and followed by calculation of PK parameters, including Cmax, AUC, T1/2 values, clearance (Cl) and oral bioavailability (F %). Cmax represents the maximum concentration of drug that observed in the serum. AUC is a measure of the total exposure of the drug in the serum. T1/2, half-life, is the time required to eliminate half of the drug. Cl is defined as the volume of blood from which all drug is removed per minute.

ACHN ccRCC xenografts = experiment: Kidney cancer xenograft model; assay type: in vivo, BALB/c nude mice; conditions: 50 mg/kg, PO, daily
Experimental: FIG. 42. Efficacy of 6403 as a single agent in ccRC xenografts. Tumor volume (A), % body weight change (B) and blood count (C) of 6403-treated (50 mg/kg, PO, daily) ACHN xenografts. μg=microgram. LOX expression in ACHN cells is provided by an inset next to the graph in A.
For kidney xenografts, 4×10^6 ACHN cells were mixed with 1:1 DMEM and matrigel and injected into the flank of the BALB/c nude mice. Mouse weight and tumor volumes were measured every second day using calipers. When tumor sizes reach 100 mm^3, mice were randomly distributed into vehicle and 6403 treatment group. Mice were treated daily by oral gavage with vehicle v (50% PEG400, 1% Tween 80 in acetate buffer pH=4) or 50 mg/kg of 6403.

HFF = experiment: Viability assay in normal cells; assay type: cell-based; conditions: human foreskin fibroblast cell line
From the text: (§1) FIG. 32. 6232 derivatives, 6403 and 6415, show no cytotoxicity in normal cells. Viability assay in normal breast cell line, MCF12A, human foreskin fibroblast cell line, HFF and human endothelial cell line, HUVEC treated with 6403 or 6415.

HUVEC = experiment: Viability assay in normal cells; assay type: cell-based; conditions: human endothelial cell line
From the text: as §1

MCF12A = experiment: Viability assay in normal cells; assay type: cell-based, human; conditions: normal breast cell line
From the text: as §1

Caki-1 cells = experiment: ECM crosslinking in kidney cancer cells; assay type: cell-based, human; conditions: 6232 at 10 uM, BAPN at 10 mM
Experimental: Immunofluorescence staining of cells was done in μ-Slide 8-well glass bottom chambers (Ibidi, Germany). Cells were fixed with 4% paraformaldehyde for 20 min, permeabilized with 0.5% Triton X-100 for 10 min and blocked in 5% BSA-PBS. Samples were incubated with primary (Collagen I, Fibronectin, F-actin, a-SMA) and secondary Alexa Fluor 647 or 488-labeled antibodies for 1.5 hours at room temperature. Cells were also counterstained with DAPI for 5 min. Images were acquired using ZEN 2012 SP5 (Black) LSM 700 (Carl Zeiss, DE).

| Structure (SMILES) | tumor growth (4T1; 6403 50 mg/kg P.O. daily with doxorubicin 2 mg/kg I.V. weekly, vs either alone) | blood counts (4T1; combination, 21-day treatment) | body weights (4T1; combination, 21-day treatment) | organoid size (TM01278 PDX organoids) | organoid viability (TM01278 PDX organoids) | blood cell counts (In vivo toxicity testing; 200 mg/kg vs vehicle) | organ damage (H&E staining of organs) (In vivo toxicity testing; 50 or 200 mg/kg daily for one week) | body weight (In vivo toxicity testing; different doses administered daily (25-200 mg/kg, 5 days)) | Area Under the Curve (AUC) (PK analysis) | clearance (Cl) (PK analysis) | half-life (T½) (PK analysis) | maximum concentration (Cmax) (PK analysis) | volume of distribution (Vd) (PK analysis) | body weight (ACHN ccRCC xenografts) | counts of major blood cells (ACHN ccRCC xenografts) | tumor growth (ACHN ccRCC xenografts; single agent) | cell viability (cytotoxicity in normal cells) (HFF) | cell viability (cytotoxicity in normal cells) (HUVEC) | cell viability (cytotoxicity in normal cells) (MCF12A) | ECM crosslinking (Caki-1 cells) |
| --- | --- | --- | --- | --- | --- | --- | --- | --- | --- | --- | --- | --- | --- | --- | --- | --- | --- | --- | --- | --- |
| CC(=O)Nc1ccc(Nc2nc(-c3sc(N)nc3C)cs2)cc1 [compound 6403, N-[4-[[4-(2-amino-4-methyl-thiazol-5-yl)thiazol-2-yl]amino]phenyl]acetamide] | significantly reduced tumor growth | no significant change | no significant change | significantly decreased organoid size | significantly decreased | No significant effect | did not lead to any observable organ damage | No significant effect | high | low | long | high | high | without impacting | without impacting | successfully reduced the tumor growth | no significant change in cell viability | no significant change in cell viability | no significant change in cell viability |  |
| Cc1nc(N)sc1-c1csc(N(C)c2ccc(O)cc2)n1 [compound 6415, 4-[[4-(2-amino-4-methyl-thiazol-5-yl)thiazol-2-yl]-methyl-amino]phenol] |  |  |  | significantly decreased organoid size | significantly decreased |  |  |  |  |  |  |  |  |  |  |  | no significant change in cell viability | no significant change in cell viability | no significant change in cell viability |  |
| Cc1nc(N)sc1-c1csc(Nc2ccc([N+](=O)[O-])cc2)n1 [compound 6232, 4-methyl-5-[2-(4-nitroanilino)thiazol-4-yl]thiazol-2-amine] |  |  |  |  |  |  |  |  |  |  |  |  |  |  |  |  |  |  |  | decrease in ECM crosslinking |
